For assay [1], the system named is DU-145 human prostate cancer cells. Briefly: MTS cell viability (cytotoxicity) assay, DU-145 prostate cancer cells. The class given is cell-based. Particulars: 48 h treatment. Here is the method: (§1) DU-145 human prostate cancer and A2058 melanoma cell lines were obtained from ATCC. These cells were cultured in RPMI-1640 or DMEM medium containing 10% fetal bovine serum (FBS), 100 units/mL penicillin, and 100 μg/mL streptomycin. All cells were maintained in a 5% CO2 atmosphere at 37° C. To determine the viability of the cells, Promega CellTiter 96 aqueous nonradioactive cell proliferation assays (MTS) were performed as described by the supplier (Promega; Madison, Wis.). Briefly, cells (5000/well) were seeded in 96-well plates and incubated overnight at 37° C. in 5% CO2. Cells were treated for 48 h with each compound. The concentration used was 10 μM. Dimethyl sulfoxide (DMSO) was used as the vehicle control. IC50 values of compounds were determined in a dose-dependent manner (0.1, 0.5, 1, 5, 10, 20, and 50 μM). Cell viability was determined by tetrazolium conversion to its formazan dye, and absorbance of formazan was measured at 490 nm using an automated ELISA plate reader. The production of formazan dye was directly proportional to the number of living cells. Each experiment was done in quadruplicate in the absence of a positive control.

The test system of the next assay is A2058 melanoma cells. In words: MTS cell viability (cytotoxicity) assay, A2058 melanoma cells. Format: cell-based, human. Particulars: 48 h treatment. Here is the method:
as §1

One may read the IC50 as the concentration at which inhibition is half-maximal. Lower therefore signals greater potency in that assay.

plakortinic acid A [compound 2]: the IC50 in assay [1] is 500 nM; in the assay on A2058 melanoma cells, 300 nM.
For “plakortinic acid B methyl ester [compound 4]” the same measures were 5900 nM and 4700 nM.

The values above are taken from patent US11198678B1, “Plakortinic acids A and B: cytotoxic cycloperoxides with a unique bicyclo[4.2.0]octene unit from sponges of the genera Plakortis and Xestospongia” (University of Puerto Rico, priority 2016, dated 2021).
